In patent US6153190A, “Erythropoietin receptor antibodies” (priority 1997, dated 2000):

Experiments:
Type in all cases: cell-based
erythropoietin (Epo) [1] = test: Inhibition of Epo-induced proliferation of UT7-Epo cells; conditions: stated for all three assays
Experimental: An assay for the measurement of Epo activity on the proliferation of UT7Epo cells, which are dependent on Epo for growth [Komatsu et al., Blood, 82:456-464 (1993)] was performed as follows. The Epo used in the experiment is Epogen (2000 U/ml) [Amgen, Thousand Oaks, Calif.], diluted in phosphate buffered saline (PBS) and human serum albumin (HSA) for storage at 4° C. at 200 U/ml. Dilutions of cleaved EpoR or EpoRFc protein samples were made, so that final concentrations ranged from 0.001 to 100 ng/ml.
Samples of either EpoR or EpoRFc were added to wells at 10 ul/well in quadruplicate. Epo (0.2 U/ml) was added to each well. UT7Epo cells (1×10^5 cells/ml) were plated at 100 ul/well. After the plates were incubated at 37° C. for three days, 10 ul/well of ^3 H-thymidine (diluted to […] in IMDM+10% fetal calf serum (FCS)) were added to a final concentration of 10 uCi/ml. Plates were incubated at 37° C. for four hours with ^3 H-thymidine. The 96-well plates were harvested onto glass fiber filters using the Tomtec plate harvester with 10% cold TCA and cold 95% ethanol. Solid scintillant was melted onto the filters and the samples counted. The mean and standard error of quadruplicate samples was determined.
The data were reported as the percent of positive (0.2 U/ml) Epo control and are illustrated in FIG. 1.

erythropoietin (Epo) [2] = test: Inhibition of Epo-induced CFU-E colony formation; conditions: murine bone marrow CFU-E; stated for all three assays
Experimental: A third assay for measuring the ability of Epo to stimulate the differentiation of murine bone marrow cells to hemoglobin producing mature erythrocytes (CFU-E assay) was performed as described below.
Murine bone marrow cells were flushed from the femur of female B2D6F1 mice. The marrow cells (1×10^5 cells/ml final concentration) were mixed with IMDM, 25% FCS (final) and methylcellulose (0.8% final). 0.4 ml cells was plated per well of 24-well TC plate. EpoRFc (40 ul/well) samples were added and Epo (1 U/ml) was added to each well. Plates were incubated at 37° C., 5% CO2, 6% O2 for two days.
CFU-E colonies containing 8 or more red cells were counted. The mean and standard error of triplicate samples were determined and data reported as the percent of the positive (1 U/ml) Epo control. The results of this assay are illustrated in FIG. 3.

erythropoietin (Epo) [3] = test: Inhibition of Epo-induced proliferation of 32D/Epo wt cells; conditions: stated for all three assays
Experimental: Another assay was performed for the measurement of Epo activity on the proliferation of 32D/Epo wt cells (Miura, O. et al., Mol. Cell. Biol., 13:1788-1795 (1993)). 32D/Epo wt is an IL-3 dependent cell line transfected with the human Epo receptor.
This assay is performed as described in Part A above, with the modification that the each well contains 1 U/ml Epo. The results of this assay are illustrated in FIG. 2.

Measured: neutralization of the biological activity of Epo

EpoR: monomeric EpoR extracellular domain protein cleaved from EpoRFc with Factor Xa
able to bind, and thereby neutralize: all assays above
